Measured values as given in US10626094B2 (La Jolla Institute of Allergy & Immunology, priority 2014, dated 2020).

biological target: LMPTP-A (Low Molecular Weight Protein Tyrosine Phosphatase-A) enzyme (Homo sapiens (Human), UniProt P24666); experiment: LMPTP primary screening / LMPTP (OMFP) enzyme inhibition assay, fluorescence intensity; format: biochemical; details: LMPTP-A, OMFP substrate, method of Example 2; read-out: IC50
Protocol: This assay attempts to identify inhibitors of the LMPTP-A (Low Molecular Weight Protein Tyrosine Phosphatase-A) enzyme. It is run in 1536-well format and is measured via fluorescence intensity.
A listing of materials is provided: • Item, source, catalog no. • LMPTP-A Enzyme Stock Solution (4.22 mg/ml or 206.8 μM), SBMRI Protein Facility, • N/A • OMFP, Sigma, M2629-100MG • Bis-Tris pH 6.0, Fisher Sci, BP301-100 • Triton-X 100, Sigma, T9284 • DTT, Sigma, D9779 • Mol. Grade Water, Mediatech, Inc., 46-000-CM • 1536-well black High base opaque bottom plate, Nexus Biosystems, 00019120
Final assay conditions are: • 0.625 nM LMPTP-A Enzyme • 400 μM OMFP • 50 mM Bis-Tris pH 6.0 • 1 mM DTT • 0.01% Triton-X 100 • 20 μM test compound • 3% DMSO (2% from substrate and 1% from compounds) • 6 μL reaction volume • 50 minutes incubation at room temp
Assay Procedure • 1. Prepare Reagents as described in section F. Recipe. • 2. Using LabCyte Echo, transfer 60 nL from 2 mM test compound source plate into assay plate Col. 5-48 (final concentration of test compounds is 20 μM). 60 nL of DMSO should be transferred to col. 1-4 for positive and negative control wells. • 3. Spin plates at 1000 rpm for 1 minute in centrifuge. • 4. […] Using the Bioraptr, add 3 μL/well of enzyme solution to col. 3-48. • 6. Using the Bioraptr, add 3 μL/well of substrate solution to col. 1-48. • 7. Spin plates at 1000 rpm for 1 minute in centrifuge. • 8. Incubate plates in the dark at room temperature for 50 minutes. • 9. Read plates on PerkinElmer Viewlux using a FI protocol.

Sequence of LMPTP-A (Low Molecular Weight Protein Tyrosine Phosphatase-A) enzyme (P24666 whole entry): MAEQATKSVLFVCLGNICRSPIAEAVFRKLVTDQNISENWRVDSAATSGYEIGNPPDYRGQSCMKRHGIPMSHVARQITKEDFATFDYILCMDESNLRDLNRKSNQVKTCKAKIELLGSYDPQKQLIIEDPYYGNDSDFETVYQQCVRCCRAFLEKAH

| IC50 [µM] | Compound |
| --- | --- |
| 0.801 to 5 | 2-(3-bromo-4-chloro-2-fluorophenyl)(4-quinolyl)](3-piperidylpropyl)amine [Compound I101] |
| 0.801 to 5 | CN(C)c1cc(-c2ccccc2C(F)(F)F)nc2ccccc12 [Compound D2, N,N-dimethyl-2-(2-(trifluoromethyl)phenyl)quinolin-4-amine] |
| 0.801 to 5 | FC(F)(F)c1ccccc1-c1cc(NCCCN2CCCCC2)c2ccccc2n1 [Compound G1, (3-piperidin-1-yl-propyl)-[2-(2-trifluoromethyl-phenyl)-quinolin-4-yl]-amine] |
| 0.2 to 0.8 | FC(F)(F)Oc1ccccc1-c1cc(NCCCN2CCCCC2)c2ccccc2n1 [Compound G2, (3-Piperidin-1-yl-propyl)-[2-(2-trifluoromethoxy-phenyl)-quinolin-4-yl]-amine] |
| 0.801 to 5 | FC(F)(F)Oc1cccc(-c2cc(NCCCN3CCCCC3)c3ccccc3n2)c1 [Compound G3, (3-Piperidin-1-yl-propyl)-[2-(3-trifluoromethoxy-phenyl)-quinolin-4-yl]-amine] |
| 0.801 to 5 | FC(F)(F)Oc1ccc(-c2cc(NCCCN3CCCCC3)c3ccccc3n2)cc1 [Compound G4, (3-Piperidin-1-yl-propyl)-[2-(4-trifluoromethoxy-phenyl)-quinolin-4-yl]-amine] |
| 0.801 to 5 | CN(C)c1cc(-c2ccc(OC(F)(F)F)cc2)nc2ccccc12 [Compound G5, N,N-dimethyl-2-(4-(trifluoromethoxy)phenyl)quinolin-4-amine] |
| 0.801 to 5 | Fc1ccccc1-c1cc(NCCCN2CCCCC2)c2ccccc2n1 [Compound G6, [2-(2-Fluoro-phenyl)-quinolin-4-yl]-(3-piperidin-1-yl-propyl)-amine] |
| 0.801 to 5 | Fc1cccc(-c2cc(NCCCN3CCCCC3)c3ccccc3n2)c1 [Compound G7, [2-(3-Fluoro-phenyl)-quinolin-4-yl]-(3-piperidin-1-yl-propyl)-amine] |
| 0.801 to 5 | Fc1ccc(-c2cc(NCCCN3CCCCC3)c3ccccc3n2)cc1 [Compound G8, [2-(4-Fluoro-phenyl)-quinolin-4-yl]-(3-piperidin-1-yl-propyl)-amine] |
| 0.801 to 5 | Cc1cccc(-c2cc(NCCCN3CCCCC3)c3ccccc3n2)c1 [Compound G9, (3-Piperidin-1-yl-propyl)-(2-m-tolyl-quinolin-4-yl)-amine] |
| 0.801 to 5 | CN(C)c1ccc(-c2cc(NCCCN3CCCCC3)c3ccccc3n2)cc1 [Compound G10, [2-(4-Dimethylamino-phenyl)-quinolin-4-yl]-(3-piperidin-1-yl-propyl)-amine] |
| > 5 | CN(C)c1ccc(-c2cc(N(C)C)c3ccccc3n2)cc1 [Compound G11, [2-(4-Dimethylamino-phenyl)-quinolin-4-yl]-dimethyl-amine] |
| 0.801 to 5 | c1coc(-c2cc(NCCCN3CCCCC3)c3ccccc3n2)c1 [Compound G12, (2-Furan-2-yl-quinolin-4-yl)-(3-piperidin-1-yl-propyl)-amine] |
| > 5 | CN(C)c1cc(-c2ccco2)nc2ccccc12 [Compound G13, (2-Furan-2-yl-quinolin-4-yl)-dimethyl-amine] |
| 0.801 to 5 | c1ccc2c(NCCCN3CCCCC3)cc(-c3ccoc3)nc2c1 [Compound G14, (2-Furan-3-yl-quinolin-4-yl)-(3-piperidin-1-yl-propyl)-amine] |
| > 5 | CN(C)c1cc(-c2ccoc2)nc2ccccc12 [Compound G15, (2-Furan-3-yl-quinolin-4-yl)-dimethyl-amine] |
| 0.801 to 5 | c1csc(-c2cc(NCCCN3CCCCC3)c3ccccc3n2)c1 [Compound G16, (3-Piperidin-1-yl-propyl)-(2-thiophen-2-yl-quinolin-4-yl)-amine] |
| > 5 | CN(C)c1cc(-c2cccs2)nc2ccccc12 [Compound G17, Dimethyl-(2-thiophen-2-yl-quinolin-4-yl)-amine] |
| > 5 | Cn1cc(-c2cc(NCCCN3CCCCC3)c3ccccc3n2)cn1 [Compound G18, [2-(1-Methyl-1H-pyrazol-4-yl)-quinolin-4-yl]-(3-piperidin-1-yl-propyl)-amine] |
| > 5 | CN(C)c1cc(-c2cnn(C)c2)nc2ccccc12 [Compound G19, Dimethyl[2-(1-methylpyrazol-4-yl)(4-quinolyl)]amine] |

| IC50 [µM] | Compound |
| --- | --- |
| 0.801 to 5 | Cc1nc(C)c(-c2cc(NCCCN3CCCCC3)c3ccccc3n2)s1 [Compound G20] |
| > 5 | Cc1nc(C)c(-c2cc(N(C)C)c3ccccc3n2)s1 [Compound G21, [2-(2,4-Dimethyl-thiazol-5-yl)-quinolin-4-yl]-dimethyl-amine] |
| 0.801 to 5 | c1c[nH]c(-c2cc(NCCCN3CCCCC3)c3ccccc3n2)c1 [Compound G22, (3-Piperidin-1-yl-propyl)-[2-(1H-pyrrol-2-yl)-quinolin-4-yl]-amine] |
| > 5 | CN(C)c1cc(-c2ccc[nH]2)nc2ccccc12 [Compound G23, Dimethyl-[2-(1H-pyrrol-2-yl)-quinolin-4-yl]-amine] |
| > 5 | COc1ccc(-c2cc(NCCCN3CCCCC3)c3cc(C)ccc3n2)cc1 [Compound G24, [2-(4-methoxy-phenyl)-6-methyl-quinolin-4-yl]-(3-piperidin-1-yl-propyl)-amine] |
| > 5 | COc1ccc(-c2cc(NCCCN3CCCCC3)c3cc(OC)ccc3n2)cc1 [Compound G25, [6-Methoxy-2-(4-methoxy-phenyl)-quinolin-4-yl]-(3-piperidin-1-yl-propyl)-amine] |
| > 5 | COc1ccc(-c2cc(NCCCN3CCCCC3)c3ccc(OC)cc3n2)cc1 [Compound G26, [7-Methoxy-2-(4-methoxy-phenyl)-quinolin-4-yl]-(3-piperidin-1-yl-propyl)-amine] |
| > 5 | COc1ccc(-c2cc(NCCCN3CCCCC3)c3cc(Cl)ccc3n2)cc1 [Compound G27, [6-Chloro-2-(4-methoxy-phenyl)-quinolin-4-yl]-(3-piperidin-1-yl-propyl)-amine] |
| > 5 | COc1ccc(-c2cc(NCCCN3CCCCC3)c3cc(C(F)(F)F)ccc3n2)cc1 [Compound G28, [2-(4-Methoxy-phenyl)-6-trifluoromethyl-quinolin-4-yl]-(3-piperidin-1-yl-propyl)-amine] |
| 0.801 to 5 | COc1ccc(-c2cc(NCCCN3CCCCC3)c3cc(F)ccc3n2)cc1 [Compound G30, [6-Fluoro-2-(4-methoxy-phenyl)-quinolin-4-yl]-(3-piperidin-1-yl-propyl)-amine] |
| > 5 | COc1ccc(-c2cc(NCCCN3CCCCC3)c3cc(OC(F)(F)F)ccc3n2)cc1 [Compound G31, [2-(4-Methoxy-phenyl)-6-trifluoromethoxy-quinolin-4-yl]-(3-piperidin-1-yl-propyl)-amine] |
| 0.801 to 5 | N#Cc1cccc(Nc2cc(-c3ccccc3C(F)(F)F)nc3ccccc23)c1 [Compound G32, 3-[2-(2-Trifluoromethyl-phenyl)-quinolin-4-ylamino]-benzonitrile] |
| > 5 | FC(F)(F)c1ccccc1-c1cc(Nc2ccccc2)c2ccccc2n1 [Compound G33, Phenyl-[2-(2-trifluoromethyl-phenyl)-quinolin-4-yl]-amine] |
| 0.801 to 5 | Fc1ccc(Nc2cc(-c3ccccc3C(F)(F)F)nc3ccccc23)cc1 [Compound G34, (4-Fluoro-phenyl)-[2-(2-trifluoromethyl-phenyl)-quinolin-4-yl]-amine] |
| 0.801 to 5 | COc1ccc(-c2cc(Nc3ccccc3)c3ccccc3n2)cc1 [Compound G35, [2-(4-Methoxy-phenyl)-quinolin-4-yl]-phenyl-amine] |
| > 5 | COc1ccc(-c2cc(Nc3ccccc3C(F)(F)F)c3ccccc3n2)cc1 [Compound G36, [2-(4-Methoxy-phenyl)-quinolin-4-yl]-(2-trifluoromethyl-phenyl)-amine] |
| > 5 | COc1ccc(-c2cc(Nc3cccc(C(F)(F)F)c3)c3ccccc3n2)cc1 [Compound G37, [2-(4-Methoxy-phenyl)-quinolin-4-yl]-(3-trifluoromethyl-phenyl)-amine] |
| 0.2 to 0.8 | COc1ccc(-c2cc(Nc3cccc(C#N)c3)c3ccccc3n2)cc1 [Compound G38, 3-[2-(4-Methoxy-phenyl)-quinolin-4-ylamino]-benzonitrile] |
| 0.801 to 5 | COc1ccc(-c2cc(Nc3ccc(F)cc3)c3ccccc3n2)cc1 [Compound G39, (4-fluorophenyl)[2-(4-methoxyphenyl)(4-quinolyl)]amine] |
| 0.801 to 5 | COc1ccc(-c2cc(Nc3ccc(Cl)cc3)c3ccccc3n2)cc1 [Compound G40, (4-chlorophenyl)[2-(4-methoxyphenyl)(4-quinolyl)]amine] |
| 0.801 to 5 | COc1ccc(-c2cc(Nc3ccc(Br)cc3)c3ccccc3n2)cc1 [Compound G41, (4-bromophenyl)[2-(4-methoxyphenyl)(4-quinolyl)]amine] |

| Compound | IC50 [µM] |
| --- | --- |
| COc1ccc(-c2cc(NCCCN3CCCCC3)c3cc([N+](=O)[O-])ccc3n2)cc1 [Compound G29, [2-(4-Methoxy-phenyl)-6-nitro-quinolin-4-yl]-(3-piperidin-1-yl-propyl)-amine] | > 5 |
